Read-outs that look alike come from different tables or passages of the source.
How the values were obtained:
[1] = test system: C6 (rat glioma cell line); assay: MTT cytotoxicity assay, C6; format: cell-based; conditions: read-out: IC50 against C6
Method: (§1) The anticancer activity of compounds 5a–5o were screened according to the MTT assays. The MTT assays were performed as previously described[32]^,[33]. Anticancer activity of final compounds was assessed against five different cancer cell lines A549 (lung carcinoma cell line), HeLa (cervical cell line), MCF-7 (human breast adenocarcinoma cell line), HepG2 (human liver carcinoma cell line) and C6 (rat glioma cell line) cell lines as well as NIH3T3 (mouse embryo fibroblast cell line). Doxorubicin and Hoechst 33342 were used as the reference drugs in the MTT assays.
(§2) The benzimidazole-1,3,4-oxadiazole derivatives (5a-5o) were tested their cytotoxic effects in vitro using five cancer cell line A549 (lung carcinoma cell line), HeLa (cervical cell line), MCF-7 (human breast adenocarcinoma cell line), HepG2 (human liver carcinoma cell line) and C6 (rat glioma cell line) cell lines as well as NIH3T3 (mouse embryo fibroblast cell line). Doxorubicin and Hoechst 33342 were used for this study as a reference drugs.

[2] = biological target: T1, Topoisomerase I (Homo sapiens, UniProt P11387); assay: DNA topoisomerase I assay (relaxation of supercoiled plasmid DNA, agarose gel); format: biochemical; conditions: agarose gel electrophoresis, camptothecin positive control, Figure 12
T1 construct: purchased TopoGen TG1018-2
T1 sequence (P11387 1-765): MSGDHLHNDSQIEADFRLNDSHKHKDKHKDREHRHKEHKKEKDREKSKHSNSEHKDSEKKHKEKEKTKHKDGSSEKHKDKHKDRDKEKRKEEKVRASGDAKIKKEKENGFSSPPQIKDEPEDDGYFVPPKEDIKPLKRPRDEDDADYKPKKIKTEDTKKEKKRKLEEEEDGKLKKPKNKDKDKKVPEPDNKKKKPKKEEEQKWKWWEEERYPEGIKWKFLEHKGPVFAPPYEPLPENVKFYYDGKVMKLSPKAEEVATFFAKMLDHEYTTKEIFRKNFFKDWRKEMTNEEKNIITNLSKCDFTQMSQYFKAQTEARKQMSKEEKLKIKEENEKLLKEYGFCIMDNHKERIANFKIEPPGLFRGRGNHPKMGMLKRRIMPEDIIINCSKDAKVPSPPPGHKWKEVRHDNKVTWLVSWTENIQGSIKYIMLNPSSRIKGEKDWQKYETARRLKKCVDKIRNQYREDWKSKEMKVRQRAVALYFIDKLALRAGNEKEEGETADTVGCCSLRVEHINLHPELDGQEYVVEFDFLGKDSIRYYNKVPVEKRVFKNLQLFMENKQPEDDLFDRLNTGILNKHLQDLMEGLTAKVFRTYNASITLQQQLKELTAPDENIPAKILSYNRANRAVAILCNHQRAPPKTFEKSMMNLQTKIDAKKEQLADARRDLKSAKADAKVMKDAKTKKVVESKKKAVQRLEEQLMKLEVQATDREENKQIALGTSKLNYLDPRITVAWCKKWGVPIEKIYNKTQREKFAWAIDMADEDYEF
Method: The topoisomerase I inhibition activities of final compounds were measured as relaxation of supercoiled plasmid DNA using agarose gel electrophoresis and camptothecin was used as a positive control. The assay was carried out in a final volume of 20 µl reaction volume containing 2 µl of 10xTGS Buffer, 6 µl water, 2 µl supercoiled plasmid DNA, 2 µl test compound, 2 µl of Top1, 2 ul 10% SDS, 2 µl proteinase K, 2 µl DNA loading dye. After incubation of reaction mixtures at 37 °C for 30 min, electrophoresis was done on a 1% agarose gel at a potential 50 V for 75 min using 1xTAE buffer.
To determine whether the DNA intercalation properties of compounds 5a, 5b, 5d, 5e, 5k, 5l, 5n and 5o might result in Topo I inhibition, agarose gel electrophores is assay was performed to evaluate the Topo I inhibitory activity of them via agarose-gel electrophoresis and CPT was used as the positive control. The TopoGEN Topoisomerase I Drug Screening Kit were optimised and implemented to accomplish this goal.
In a previous studies, it was said that the compounds poisoning topoisomerase caused the formation of nick bands in such gel appearances, while the formation of Supercoiled bands was said to be caused by catalytic inhibitors that bound to either DNA or enzyme[40]^,[41].

[3] = test system: A549 (lung carcinoma cell line); assay: MTT cytotoxicity assay, A549; format: cell-based; conditions: read-out: IC50 against A549
Method: as §1, §2

[4] = test system: HepG2 cells; assay: DNA synthesis inhibition assay (BrdU), HepG2; format: cell-based, human; conditions: 5a at 5.695 µg/mL, doxorubicin at 16.482 µg/mL
Method: (§3) The BrdU cell proliferation method was performed to analyse the effects of the active compounds on proliferation of cancer cells. Cancer cells were seeded into the 96-well plates at a density of 1 × 10^4 cells. Compounds were added into the each well at three different concentrations (IC50/2, IC50 and 2xIC50) and the plates were incubated for 24 h. At the end of the incubation period, BrdU solution was added and cells were reincubated for 2 h at 37 °C. Anti-BrdU-POD ([…]) was added and the mixture was incubated for 90 min. Microplates were washed with PBS for three times. After adding substrate solution, the mixture was incubated for 15 min. OD of the wells were determined at 492 nm. Proliferation of control cells was assessed as 100% and growth inhibition % of cells, treated with test compounds and […] were calculated.
(§4) According to the MTT assay, compound 5n for A549 cell line; compounds 5a, 5d, 5e, 5o for MCF-7 cell line; compound 5k for C6 cell line; compound 5a for HepG2 cell line; compounds 5b, 5l and 5n for HeLa cell line were selected for the DNA synthesis inhibition assay. A549, C6, MCF-7, HepG2 and HeLa cells were incubated with three different concentrations (IC50/2, IC50, and […]) of the compounds for 24 and 48 h time periods. […] Doxorubicin was used as positive control.

[5] = test system: HepG2 cell line; assay: Flow cytometric analysis (Annexin V/PI), HepG2; format: cell-based, human; conditions: at IC50 concentrations, 24 h incubation
Method: (§5) Death pathway of the carcinogenic cell lines was detected by Annexin V-FITC Apoptosis Detection Kit (BD, Pharmingen) as reported previously described. […] FCS Express software was used to display the percent of normal and apoptotic cells at different stages. […] The experiments were carried out in triplicates.
(§6) Annexin V/PI staining on tested cancer cells treated with the active compounds was performed to investigate induction of apoptosis. […] According to the MTT assay, compound 5n for A549 cell line; compounds 5a, 5d, 5e, 5o for MCF-7 cell line; compound 5k for C6 cell line; compound 5a for HepG2 cell line; compounds 5b, 5l and 5n for HeLa cell line were selected for the flow cytometric analysis. Furthermore, flow cytometry studies were performed for reference drug doxorubicin. Flow cytometric analysis diagrams of tested compounds and doxorubicin at IC50/2, IC50, and 2xIC50 concentrations on cancer cells were presented in Figures 7–11.

[6] = test system: NIH3T3 (mouse embryo fibroblast cell line); assay: MTT cytotoxicity assay, NIH3T3 healthy cells; format: cell-based; conditions: read-out: IC50 against NIH3T3
Method: The anticancer activity of compounds 5a–5o were screened according to the MTT assays. The MTT assays were performed as previously described[32]^,[33]. Anticancer activity of final compounds was assessed against five different cancer cell lines A549 (lung carcinoma cell line), HeLa (cervical cell line), MCF-7 (human breast adenocarcinoma cell line), HepG2 (human liver carcinoma cell line) and C6 (rat glioma cell line) cell lines as well as NIH3T3 (mouse embryo fibroblast cell line). Doxorubicin and Hoechst 33342 were used as the reference drugs in the MTT assays. It is crucial that an anticancer agent affects the cancer cell line but having minimal or no side-effect on healthy cells. For this purpose, the cytotoxic effects of the active compounds on the NIH3T3 cell line were investigated (Table 2).

[7] = test system: HeLa (cervical cell line); assay: MTT cytotoxicity assay, HeLa; format: cell-based; conditions: read-out: IC50 against HeLa
Method: as §1, §2

[8] = test system: MCF-7 cell line; assay: Flow cytometric analysis (Annexin V/PI), MCF-7; format: cell-based, human; conditions: MCF-7 cells
Method: as §5, §6

[9] = test system: MCF-7 (human breast adenocarcinoma cell line); assay: MTT cytotoxicity assay, MCF-7; format: cell-based; conditions: read-out: IC50 against MCF-7
Method: as §1, §2

[10] = test system: HepG2 (human liver carcinoma cell line); assay: MTT cytotoxicity assay, HepG2; format: cell-based; conditions: read-out: IC50 against HepG2
Method: as §1, §2

[11] = test system: HeLa cells; assay: DNA synthesis inhibition assay (BrdU), HeLa; format: cell-based; conditions: 48 h, 5b 0.698, 5l 0.224, 5n 0.205, doxorubicin 14.280 µg/mL
Method: as §3, §4

[12] = test system: MCF7 cells; assay: DNA synthesis inhibition assay (BrdU), MCF7; format: cell-based, human; conditions: 48 h, 5e at 7.318 µg/mL, doxorubicin at 10.525 µg/mL
Method: as §3, §4

[13] = test system: HeLa cell line; assay: Flow cytometric analysis (Annexin V/PI), HeLa; format: cell-based
Method: as §5, §6

[14] = test system: A549 cell line; assay: Flow cytometric analysis (Annexin V/PI), A549; format: cell-based; conditions: at IC50 concentrations
Method: as §5, §6

[15] = test system: A549 cells; assay: DNA synthesis inhibition assay (BrdU), A549; format: cell-based; conditions: 48 h
Method: as §3, §4

[16] = test system: C6 cell line; assay: Flow cytometric analysis (Annexin V/PI), C6; format: cell-based, rat; conditions: at IC50 concentrations
Method: as §5, §6

[17] = Homo sapiens, MCF7, MCF-7 cell line
[18] = 5n at 5.39 µg/mL, doxorubicin at 6.21 µg/mL
[19] = 5n at 7.39 µg/mL, doxorubicin at 12.42 µg/mL
[20] = 5n at 14.77 µg/mL, doxorubicin at 24.84 µg/mL

SMILES	IC50 ([1]; Rattus norvegicus) [µM]	Topo I inhibition activity [2]	IC50 ([3]; Homo sapiens, A549, MTT assay) [µM]	% DNA synthesis inhibition ([4]; 24 h) [%]	% DNA synthesis inhibition ([4]; 48 h) [%]	percentage of apoptotic cells [5] [%]	IC50 ([6]; Mus musculus) [µM]	IC50 ([7]; Homo sapiens) [µM]	percentage of apoptosis (early + late apoptotic cells) [8] [%]	IC50 [9, 17] [µM]	IC50 ([10]; Homo sapiens) [µM]	% DNA synthesis inhibition [11] [%]	% DNA synthesis inhibition [12] [%]	percentage of apoptotic cells [13] [%]	percentage of apoptotic cells [14] [%]	% DNA synthesis inhibition [15, 18] [%]	% DNA synthesis inhibition [15, 19] [%]	% DNA synthesis inhibition [15, 20] [%]	further results
CN1CCN(C(=O)CSc2nnc(-c3ccc4nc(-c5ccc(O)cc5)[nH]c4c3)o2)CC1 [5a, 2-((5–(2-(4-Hydroxyphenyl)-1H-benzo[d]imidazol-6-yl)-1,3,4-oxadiazol-2-yl)thio)-1–(4-methyl-piperazin-1-yl) -ethane-1-on]	15.6 ± 0.615	potent topo I inhibition activity	43.3 ± 1.79	60.89	72.05	13.2	39.1 ± 1.94	14 ± 0.65	15.4	5.7 ± 0.254	5.7 ± 0.283	–	–	–	–	–	–	–	–
CCN1CCN(C(=O)CSc2nnc(-c3ccc4nc(-c5ccc(O)cc5)[nH]c4c3)o2)CC1 [5b, 2-((5–(2-(4-Hydroxyphenyl)-1H-benzo[d]imidazol-6-yl)-1,3,4-oxadiazol-2-yl)thio)-1–(4-ethyl-piperazin-1-yl) -ethane-1-on]	≥ 100	potent topo I inhibition activity	≥ 100	–	–	–	944.4 ± 7.62	0.698 ± 0.032	–	≥ 100	≥ 100	49.70	–	–	–	–	–	–	–
O=C(CSc1nnc(-c2ccc3nc(-c4ccc(O)cc4)[nH]c3c2)o1)N1CCN(c2ncccn2)CC1 [5e, 2-((5–(2-(4-Hydroxyphenyl)-1H-benzo[d]imidazol-6-yl)-1,3,4-oxadiazol-2-yl)thio)-1-(4-(pyrimidine-2-yl)-piperazin-1-yl)-ethane-1-on]	≥ 100	potent topo I inhibition activity	–	–	–	–	54 ± 2.68	≥ 100	13.1	7.32 ± 0.352	≥ 100	–	93.81	–	–	–	–	–	–
CCOc1ccc(-c2nc3ccc(-c4nnc(SCC(=O)N5CCN(CC)CC5)o4)cc3[nH]2)cc1 [5l, 2-((5-(2-(4-Ethoxyphenyl)-1H-benzo[d]imidazol-6-yl)-1,3,4-oxadiazol-2-yl)thio)-1–(4-ethyl-piperazin-1-yl)-ethane-1-on]	≥ 100	potent topo I inhibition activity	31 ± 1.53	–	–	–	113 ± 5.47	0.224 ± 0.011	–	≥ 100	≥ 100	56.01	–	8.6	–	–	–	–	–
CCOc1ccc(-c2nc3ccc(-c4nnc(SCC(=O)N5CCN(c6ccccn6)CC5)o4)cc3[nH]2)cc1 [5n]	–	potent topo I inhibition activity	–	–	–	–	–	–	–	–	–	57.65	–	15.2	13	66.00	68.25	78.17	IC50 [1]: ≥ 100 µM; IC50 ([3]; MTT assay): 7.39 ± 0.325 µM; IC50 [6]: 189 ± 8.73 µM; IC50 [7]: 0.205 ± 0.01 µM; IC50 ([9]; MCF-7 cell line): ≥ 100 µM; IC50 [10]: ≥ 100 µM
COc1cccc2c1C(=O)c1c(O)c3c(c(O)c1C2=O)C[C@@](O)(C(=O)CO)C[C@@H]3O[C@H]1C[C@H](N)[C@H](O)[C@H](C)O1 [Dox., doxorubicin, reference compound]	28.7 ± 1.23	–	12.4 ± 0.521	42.80	74.22	9.4	1111 ± 8.25	14.3 ± 0.704	12.7	10.5 ± 0.472	16.5 ± 0.804	–	84.60	–	19.2	62.78	73.43	81.22	inhibition at 14.28 µg/mL ([11]; Homo sapiens): 66.5%; percentage of apoptotic cells [16]: 13.7%

— PMC7470102, “Synthesis, anticancer evaluation and molecular docking studies of new benzimidazole- 1,3,4-oxadiazole derivatives as human topoisomerase types I poison” (Journal of Enzyme Inhibition and Medicinal Chemistry, 2020)
